Measured values taken from patent publication US20030232741A1, “Methods of treatment of glaucoma and other conditions mediated by NOS-2 expression via inhibition of the EGFR pathway” (Washington University, priority 2002, published 2003).
Entries after “also recorded” stand apart in the source; their conditions may differ.

Experiments:
Format in all cases: cell-based
NOS-2 = NOS-2 protein induction in human ONH astrocytes (immunoblot); settings: for NOS-2 protein induced by elevated hydrostatic pressure: elevated hydrostatic pressure 48 hrs, AG18 40 μM, anti-EGFR antibody 1:20; for induction of NOS-2 in response to cytokines (protein/mRNA not specified): IL-1β/IFN-γ
Description: (§1) Twelve normal human (aged 22-51) eyes were obtained within 24 hrs after death. Lamina cribrosa astrocytes were obtained as described previously.^5 The second-passage cell cultures, which had over 95% cells positive for GFAP, were grown to 60-80% confluency and placed in serum free medium for one week before use.
(§2) Astrocytes grown on coverslips were placed under sterile, disposable polypropylene cylinders 6 cm high and 3 cm in diameter. Hydrostatic pressure was elevated by 5 cm of serum free medium, conditioned at 37° C. in a 5% CO2 humidified atmosphere. As control, the same number of cells on a coverslip was placed in 140 mm Petri dishes with 0.3 cm height of media in a volume equivalent to that used in the hydrostatic pressure experiments. Both pressurized and control cultures were maintained in a tissue culture incubator at 37° C. with a 5% CO2 humidified atmosphere for various periods. AG82 or AG18 (Calbiochem, Darmstadt, Germany) was added to the cell media 30 min before and during the period of exposure to elevated hydrostatic pressure or IL-1β/IFN-γ at final concentrations of 7 μM or 40 μM, respectively. SB202190 (Calbiochem, Darmstadt, Germany) was added to the cell media 30 min before and during the period of exposure to elevated hydrostatic pressure or IL-1β/IFN-γ at a final concentrations of 380 nM. SN-50 (BioMol, Plymouth Meeting, Pa.) was added to the cell media 30 min before and during the period of exposure to elevated hydrostatic pressure or IL-1β/IFN-γ at a final concentrations of 50 μg/ml. Monoclonal anti-EGFR antibody (Santa Cruz Biotechnology Inc, Santa Cruz, Calif.) which recognizes an EGF receptor cell surface epitope and is an antagonist of EGFR, was added to the cell media 12 hrs before and during the period of exposure to elevated hydrostatic pressure or EGF (100 ng/ml)(Sigma-Aldrich Corp., St. Louis, Mo.) at a working dilution of 1:20. Astrocytes were stimulated by the addition to the media of 200 U/ml human IFN-γ (Sigma-Aldrich Corp, Saint Louis, Mo.) and 10 ng/ml human IL-1β (Sigma-Aldrich Corp, Saint Louis, Mo.) for 12 or 48 hours.
NOS-2 immunoblot was as described previously.^5 For EGFR and p-EGFR immunoblot,^11 astrocytes were lysed in buffer (20 mm HEPES, pH 7.0, 10 mM KCI, 2 mM MgCl2, 0.5% Nonidet P40, 1 mM Na3VO4, 1 mM PMSF, 0.15 U ml^−1 aprotinin) and homogenized. The non-nuclear and nuclear fractions were separated by centrifugation at 1,500 g for 5 min to sediment the nuclei. The nuclear pellet was washed with the lysis buffer and resuspended in the same buffer containing 0.5 M NaCl to extract nuclear proteins. 20 μg protein of each non-nuclear fraction and 40 μg of each nuclear fraction were separated by 10% SDS-PAGE and transferred to a nitrocellulose membrane. Immunoblotting was performed with specific primary antibody against EGFR and p-EGFR followed by peroxidase-conjugated secondary antibody (Santa Cruz Biotechnology Inc, Santa Cruz, Calif.) and imaged by the enhanced chemiluminescence detection system (Amersham Life Science Inc, Arlington Heights, Ill.).

NOS-2 mRNA = NOS-2 mRNA induction in human ONH astrocytes (semi-quantitative RT-PCR); settings: AG82 7 μM, SB202190 380 nM, SN-50 50 μg/ml; for NOS-2 mRNA induced by elevated hydrostatic pressure: elevated hydrostatic pressure 12 hrs, AG18 40 μM
Description: as §1
as §2, with “Astrocytes were stimulated by the addition to the media of 200 U/ml human IFN-γ (Sigma-Aldrich Corp, Saint Louis, Mo.) and 10 ng/ml human IL-1β (Sigma-Aldrich Corp, Saint Louis, Mo.) for 12 or 48 hours.” left out
Semi-quantitative RT-PCR was performed as published previously.^8

p-EGFR [1] = biological target: T1, p-EGFR (Homo sapiens, UniProt P00533); test: Immunocytochemistry for p-EGFR in cultured human ONH astrocytes exposed to elevated hydrostatic pressure; settings: elevated hydrostatic pressure 10 min; AG82 7 μM added 30 min before and during
T1 sequence (P00533 25-1210): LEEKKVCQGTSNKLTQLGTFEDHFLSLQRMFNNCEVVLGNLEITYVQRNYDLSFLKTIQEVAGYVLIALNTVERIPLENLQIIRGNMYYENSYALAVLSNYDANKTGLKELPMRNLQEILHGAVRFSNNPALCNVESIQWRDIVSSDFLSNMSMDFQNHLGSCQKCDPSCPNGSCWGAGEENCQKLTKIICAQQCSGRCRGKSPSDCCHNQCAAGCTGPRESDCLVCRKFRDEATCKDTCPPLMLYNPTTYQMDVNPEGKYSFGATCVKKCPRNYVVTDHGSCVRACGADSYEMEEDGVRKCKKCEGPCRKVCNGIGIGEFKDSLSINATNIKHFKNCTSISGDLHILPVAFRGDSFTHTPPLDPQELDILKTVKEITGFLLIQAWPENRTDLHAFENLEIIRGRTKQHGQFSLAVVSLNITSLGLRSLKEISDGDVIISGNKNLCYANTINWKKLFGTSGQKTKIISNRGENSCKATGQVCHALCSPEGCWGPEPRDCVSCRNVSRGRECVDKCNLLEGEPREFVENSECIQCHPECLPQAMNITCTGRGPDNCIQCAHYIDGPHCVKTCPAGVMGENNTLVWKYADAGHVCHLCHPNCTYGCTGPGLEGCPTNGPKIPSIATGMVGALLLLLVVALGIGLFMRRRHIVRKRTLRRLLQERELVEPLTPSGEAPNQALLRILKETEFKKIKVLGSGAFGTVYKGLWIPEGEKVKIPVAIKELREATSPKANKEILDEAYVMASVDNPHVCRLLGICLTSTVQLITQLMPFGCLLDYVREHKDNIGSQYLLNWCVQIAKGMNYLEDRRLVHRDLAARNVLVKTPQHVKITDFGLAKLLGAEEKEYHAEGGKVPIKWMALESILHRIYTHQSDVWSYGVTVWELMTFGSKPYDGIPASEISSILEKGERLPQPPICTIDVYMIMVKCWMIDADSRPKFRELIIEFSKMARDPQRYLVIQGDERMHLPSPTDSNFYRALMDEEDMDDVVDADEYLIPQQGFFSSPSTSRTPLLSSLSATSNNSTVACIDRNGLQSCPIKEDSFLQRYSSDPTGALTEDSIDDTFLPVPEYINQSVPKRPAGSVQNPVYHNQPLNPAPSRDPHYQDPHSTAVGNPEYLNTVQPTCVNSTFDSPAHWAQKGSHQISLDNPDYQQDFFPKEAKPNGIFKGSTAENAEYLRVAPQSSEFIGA
Description: Astrocytes grown on coverslips were placed under sterile, disposable polypropylene cylinders 6 cm high and 3 cm in diameter. Hydrostatic pressure was elevated by 5 cm of serum free medium, conditioned at 37° C. in a 5% CO2 humidified atmosphere. As control, the same number of cells on a coverslip was placed in 140 mm Petri dishes with 0.3 cm height of media in a volume equivalent to that used in the hydrostatic pressure experiments. Both pressurized and control cultures were maintained in a tissue culture incubator at 37° C. with a 5% CO2 humidified atmosphere for various periods. […]
As described previously,^5 cells grown on coverslips were fixed in 4% paraformaldehyde, incubated with specific primary antibodies against EGFR, p-EGFR or GFAP and appropriate fluorescent conjugated secondary antibodies (Molecular Probes Inc., Eugene, Ore), and visualized by fluorescence microscopy. […]

p-EGFR [2] = biological target: T1, p-EGFR; test: Immunoblot for p-EGFR in nuclear and non-nuclear fractions of human ONH astrocytes exposed to elevated hydrostatic pressure; settings: elevated hydrostatic pressure 10 min; AG82 7 μM added 30 min before and during
Description: NOS-2 immunoblot was as described previously.^5 For EGFR and p-EGFR immunoblot,^11 astrocytes were lysed in buffer (20 mm HEPES, pH 7.0, 10 mM KCI, 2 mM MgCl2, 0.5% Nonidet P40, 1 mM Na3VO4, 1 mM PMSF, 0.15 U ml^−1 aprotinin) and homogenized. The non-nuclear and nuclear fractions were separated by centrifugation at 1,500 g for 5 min to sediment the nuclei. […]

[3] = AG82 7 μM, SB202190 380 nM, SN-50 50 μg/ml

| Compound | NOS-2 protein induced by elevated hydrostatic pressure (NOS-2; [3]) | NOS-2 mRNA induced by elevated hydrostatic pressure (NOS-2 mRNA) | induction of NOS-2 in response to cytokines (protein/mRNA not specified) (NOS-2; human optic nerve astrocytes) | also measured |
| --- | --- | --- | --- | --- |
| N#CC(C#N)=Cc1ccc(O)c(O)c1 [AG18, α-Cyano-(3,4-dihydroxy)cinnamonitrile] | prevented both the increased protein level and the mRNA level of NOS-2; also recorded: significantly blocked the appearances of NOS-2 mRNA and protein | prevented both the increased protein level and the mRNA level of NOS-2; also recorded: significantly blocked the appearances of NOS-2 mRNA and protein | – | – |
| N#CC(C#N)=Cc1cc(O)c(O)c(O)c1 [AG82, α-Cyano-(3,4,5-trihydroxy)cinnamonitrile] | significantly prevented the increased protein level of NOS-2; also recorded: significantly blocked the appearance of NOS-2 protein in response to elevated hydrostatic pressure; also recorded: significantly blocked the appearances of NOS-2 mRNA and protein | almost completely prevented; also recorded: affects the transcription of the NOS-2 gene to mRNA in response to elevated hydrostatic pressure; also recorded: significantly blocked the appearances of NOS-2 mRNA and protein | does not inhibit the induction of NOS-2 in response to cytokines | immunocytochemical labeling for p-EGFR in response to elevated hydrostatic pressure (p-EGFR [1]): blocked the increased immunocytochemical labeling for p-EGFR in the cytoplasm in response to elevated hydrostatic pressure and, most notably, there was no nuclear labeling for p-EGFR; also recorded: prevents the nuclear labeling for p-EGFR; tyrosine phosphorylation of EGFR (p-EGFR) in non-nuclear and nuclear extracts by immunoblot (p-EGFR [2]): significantly blocked the tyrosine phosphorylation of EGFR in both non-nuclear and nuclear extracts; also recorded: completely prevents the increase in p-EGFR in both nuclear and non-nuclear fractions; induction of NOS-2 in response to elevated hydrostatic pressure (protein/mRNA not specified) (NOS-2; human optic nerve astrocytes, elevated hydrostatic pressure): blocks induction of NOS-2 in response to elevated hydrostatic pressure |
| Oc1ccc(-c2nc(-c3ccncc3)c(-c3ccc(F)cc3)[nH]2)cc1 [SD202190] | – | – | blocks the induction of NOS-2 in human optic nerve astrocytes in response to cytokines | NOS-2 protein induced by cytokines (NOS-2; 200 U/ml IFN-γ and 10 ng/ml IL-1β, 48 hours, AG82 7 μM, SB202190 380 nM, SN-50 50 μg/ml): significantly blocked the appearance of NOS-2 protein in response to cytokine stimulation; NOS-2 mRNA induced by cytokines (NOS-2 mRNA; 200 U/ml IFN-γ and 10 ng/ml IL-1β, 12 hours): affects the transcription of the NOS-2 gene to mRNA in response to cytokines |
| EGF: epidermal growth factor, EGFR ligand (Sigma-Aldrich), added at 100 ng/ml (NSDSECPLSHDGYCLHDGVCMYIEALDKYACNCVVGYIGERCQYRDLKWWELR; UniProt P01133 971-1023, looked up) | – | – | – | NOS-2 protein level in astrocytes treated with EGF (Western blot and immunocytochemistry) (NOS-2; 100 ng/ml EGF in culture medium for 48 hrs, versus non-treated astrocytes): significantly increased; also recorded: increased labeling for NOS-2 and GFAP |
